# PMC2949283 (The Biochemical journal, 2009)
# Where two headings read alike, the source gives them in different places.
# How the values were obtained:
# Format in all cases: biochemical
# Wild Type HuAChE = Wild Type HuAChE (Homo sapiens, UniProt P22303); assay: HuAChE inhibition kinetics
# W86A HuAChE = W86A HuAChE (Homo sapiens, UniProt P22303, W117A); assay: HuAChE inhibition kinetics
# Y337A HuAChE = Y337A HuAChE (Homo sapiens, UniProt P22303, Y368A); assay: HuAChE inhibition kinetics
# F338A HuAChE = F338A HuAChE (Homo sapiens, UniProt P22303, F369A); assay: HuAChE inhibition kinetics
# F295A/F338A HuAChE = F295A/F338A HuAChE (Homo sapiens, UniProt P22303, F326A/F369A); assay: HuAChE inhibition kinetics
# E202Q HuAChE = E202Q HuAChE (Homo sapiens, UniProt P22303, E233Q); assay: HuAChE inhibition kinetics; details: for k2, carbamylation rate constant: E202Q HuAChE
# [1] = molecular target: Y72N/Y124Q/W286A/ F295L/F297V/Y337A HuAChE (Homo sapiens, UniProt P22303, F326L/F328V/W317A/Y103N/Y155Q/Y368A); assay: HuAChE inhibition kinetics
# Y341A HuAChE = Y341A HuAChE (Homo sapiens, UniProt P22303, Y372A); assay: HuAChE inhibition kinetics; details: for k2, carbamylation rate constant: Y341A HuAChE
# E202A HuAChE = E202A HuAChE (Homo sapiens, UniProt P22303, E233A); assay: HuAChE inhibition kinetics; details: for k2, carbamylation rate constant: E202A HuAChE
# W86F HuAChE = W86F HuAChE (Homo sapiens, UniProt P22303, W117F); assay: HuAChE inhibition kinetics; details: for k2, carbamylation rate constant: W86F HuAChE
# Y133A HuAChE = Y133A HuAChE (Homo sapiens, UniProt P22303, Y164A); assay: HuAChE inhibition kinetics; details: for k2, carbamylation rate constant: Y133A HuAChE
# [2] = molecular target: Y72N/Y124Q/W286A/ F295L/F297V/Y337A/ V407F HuAChE (Homo sapiens, UniProt P22303, F326L/F328V/V438F/W317A/Y103N/Y155Q/Y368A); assay: HuAChE inhibition kinetics
# D74N HuAChE = D74N HuAChE (Homo sapiens, UniProt P22303, D105N); assay: HuAChE inhibition kinetics; details: for k2, carbamylation rate constant: D74N HuAChE
# F295L/F297V HuAChE = F295L/F297V HuAChE (Homo sapiens, UniProt P22303, F326L/F328V); assay: HuAChE inhibition kinetics; details: for k2, carbamylation rate constant: F295L/F297V HuAChE
# E450A HuAChE = E450A HuAChE (Homo sapiens, UniProt P22303, E481A); assay: HuAChE inhibition kinetics; details: for k2, carbamylation rate constant: E450A HuAChE
# F297A HuAChE = F297A HuAChE (Homo sapiens, UniProt P22303, F328A); assay: HuAChE inhibition kinetics; details: F297A HuAChE
# F295A/F297A HuAChE = F295A/F297A HuAChE (Homo sapiens, UniProt P22303, F326A/F328A); assay: HuAChE inhibition kinetics
# W286A HuAChE = W286A HuAChE (Homo sapiens, UniProt P22303, W317A); assay: HuAChE inhibition kinetics
# F295L/F297V/Y337A HuAChE = F295L/F297V/Y337A HuAChE (Homo sapiens, UniProt P22303, F326L/F328V/Y368A); assay: HuAChE inhibition kinetics; details: for k2, carbamylation rate constant: F295L/F297V/Y337A HuAChE
# Y337F HuAChE = Y337F HuAChE (Homo sapiens, UniProt P22303, Y368F); assay: HuAChE inhibition kinetics; details: for k2, carbamylation rate constant: Y337F HuAChE
# Y72N HuAChE = Y72N HuAChE (Homo sapiens, UniProt P22303, Y103N); assay: HuAChE inhibition kinetics; details: for k2, carbamylation rate constant: Y72N HuAChE
# F295A/F338A/V407F HuAChE = F295A/F338A/V407F HuAChE (Homo sapiens, UniProt P22303, F326A/F369A/V438F); assay: HuAChE inhibition kinetics; details: for k2, carbamylation rate constant: F295A/F338A/V407F HuAChE
# Y133F HuAChE = Y133F HuAChE (Homo sapiens, UniProt P22303, Y164F); assay: HuAChE inhibition kinetics; details: for k2, carbamylation rate constant: Y133F HuAChE
# HuBChE-Wild Type = HuBChE-Wild Type (Homo sapiens, UniProt P06276); assay: HuBChE inhibition kinetics; details: for k2, carbamylation rate constant: HuBChE-Wild Type
# F295A HuAChE = F295A HuAChE (Homo sapiens, UniProt P22303, F326A); assay: HuAChE inhibition kinetics; details: for k2, carbamylation rate constant: F295A HuAChE
# W86A/Y337A HuAChE = W86A/Y337A HuAChE (Homo sapiens, UniProt P22303, W117A/Y368A); assay: biochemical
# Y124A HuAChE = Y124A HuAChE (Homo sapiens, UniProt P22303, Y155A); assay: HuAChE inhibition kinetics
# [3] = read-out: Kd, noncovalent inhibition (competition with ATC), Wild Type HuAChE
# [4] = read-out: Kd, noncovalent inhibition (competition with ATC), W86A HuAChE
# [5] = read-out: Kd, noncovalent inhibition (competition with ATC), Y337A HuAChE
# [6] = read-out: Kd, noncovalent inhibition (competition with ATC), F338A HuAChE
# [7] = Y72N/Y124Q/W286A/F295L/F297V/Y337A HuAChE
# [8] = Y72N/Y124Q/W286A/F295L/F297V/Y337A/V407F HuAChE
# Sequence of HuBChE-Wild Type (P06276 29-602): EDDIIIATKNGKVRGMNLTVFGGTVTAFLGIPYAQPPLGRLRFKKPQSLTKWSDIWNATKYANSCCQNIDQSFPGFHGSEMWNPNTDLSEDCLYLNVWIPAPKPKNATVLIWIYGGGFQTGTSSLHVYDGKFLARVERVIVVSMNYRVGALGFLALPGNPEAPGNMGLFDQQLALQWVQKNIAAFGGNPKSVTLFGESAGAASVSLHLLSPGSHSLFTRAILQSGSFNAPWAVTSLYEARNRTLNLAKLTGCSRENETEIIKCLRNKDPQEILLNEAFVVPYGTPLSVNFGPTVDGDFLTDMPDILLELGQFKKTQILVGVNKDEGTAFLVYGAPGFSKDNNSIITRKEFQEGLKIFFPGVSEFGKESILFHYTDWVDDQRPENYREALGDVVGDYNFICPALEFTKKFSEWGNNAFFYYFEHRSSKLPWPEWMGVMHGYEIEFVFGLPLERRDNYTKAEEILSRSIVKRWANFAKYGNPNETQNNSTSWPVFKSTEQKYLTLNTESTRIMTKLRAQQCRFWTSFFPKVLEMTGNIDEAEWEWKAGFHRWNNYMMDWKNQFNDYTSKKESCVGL
# Sequence of F295L/F297V/Y337A HuAChE (P22303 32-614 F326L/F328V/Y368A): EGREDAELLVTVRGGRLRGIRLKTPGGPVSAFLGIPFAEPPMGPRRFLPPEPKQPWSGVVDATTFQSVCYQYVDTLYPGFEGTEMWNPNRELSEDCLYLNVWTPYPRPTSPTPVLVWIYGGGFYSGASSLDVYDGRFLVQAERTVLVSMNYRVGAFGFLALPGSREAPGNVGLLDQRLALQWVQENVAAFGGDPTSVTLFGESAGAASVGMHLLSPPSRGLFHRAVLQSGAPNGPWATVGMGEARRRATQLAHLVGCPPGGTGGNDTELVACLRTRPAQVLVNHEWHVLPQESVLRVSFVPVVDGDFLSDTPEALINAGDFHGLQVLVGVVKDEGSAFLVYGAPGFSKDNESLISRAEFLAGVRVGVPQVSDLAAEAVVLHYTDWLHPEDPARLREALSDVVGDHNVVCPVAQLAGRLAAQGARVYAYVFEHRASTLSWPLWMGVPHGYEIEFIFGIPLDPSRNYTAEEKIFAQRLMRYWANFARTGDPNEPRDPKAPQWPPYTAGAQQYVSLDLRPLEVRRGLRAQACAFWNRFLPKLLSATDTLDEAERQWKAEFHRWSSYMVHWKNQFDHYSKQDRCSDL
# Sequence of F295A/F338A HuAChE (P22303 32-614 F326A/F369A): as the sequence (P22303 32-614 F326L/F328V/Y368A) above, with L295A, V297F, A337Y, F338A counted along it
# Sequence of Y72N/Y124Q/W286A/ F295L/F297V/Y337A/ V407F HuAChE (P22303 32-614 Y103N/Y155Q/W317A/F326L/F328V/Y368A/V438F): as the sequence (P22303 32-614 F326L/F328V/Y368A) above, with Y72N, Y124Q, W286A, V407F counted along it
# Sequence of Y337F HuAChE (P22303 32-614 Y368F): as the sequence (P22303 32-614 F326L/F328V/Y368A) above, with L295F, V297F, A337F counted along it
# Sequence of F295L/F297V HuAChE (P22303 32-614 F326L/F328V): as the sequence (P22303 32-614 F326L/F328V/Y368A) above, with A337Y counted along it
# Sequence of F295A/F297A HuAChE (P22303 32-614 F326A/F328A): as the sequence (P22303 32-614 F326L/F328V/Y368A) above, with L295A, V297A, A337Y counted along it
# Sequence of F295A HuAChE (P22303 32-614 F326A): as the sequence (P22303 32-614 F326L/F328V/Y368A) above, with L295A, V297F, A337Y counted along it
# Sequence of F338A HuAChE (P22303 32-614 F369A): as the sequence (P22303 32-614 F326L/F328V/Y368A) above, with L295F, V297F, A337Y, F338A counted along it
# Sequence of E202A HuAChE (P22303 32-614 E233A): as the sequence (P22303 32-614 F326L/F328V/Y368A) above, with E202A, L295F, V297F, A337Y counted along it
# Sequence of W86F HuAChE (P22303 32-614 W117F): as the sequence (P22303 32-614 F326L/F328V/Y368A) above, with W86F, L295F, V297F, A337Y counted along it
# Sequence of Wild Type HuAChE (P22303 32-614): as the sequence (P22303 32-614 F326L/F328V/Y368A) above, with L295F, V297F, A337Y counted along it
# Sequence of Y337A HuAChE (P22303 32-614 Y368A): as the sequence (P22303 32-614 F326L/F328V/Y368A) above, with L295F, V297F counted along it
# Sequence of Y133A HuAChE (P22303 32-614 Y164A): as the sequence (P22303 32-614 F326L/F328V/Y368A) above, with Y133A, L295F, V297F, A337Y counted along it
# Sequence of F295A/F338A/V407F HuAChE (P22303 32-614 F326A/F369A/V438F): as the sequence (P22303 32-614 F326L/F328V/Y368A) above, with L295A, V297F, A337Y, F338A, V407F counted along it
# Sequence of Y72N/Y124Q/W286A/ F295L/F297V/Y337A HuAChE (P22303 32-614 Y103N/Y155Q/W317A/F326L/F328V/Y368A): as the sequence (P22303 32-614 F326L/F328V/Y368A) above, with Y72N, Y124Q, W286A counted along it
# Sequence of E450A HuAChE (P22303 32-614 E481A): as the sequence (P22303 32-614 F326L/F328V/Y368A) above, with L295F, V297F, A337Y, E450A counted along it
# Sequence of W286A HuAChE (P22303 32-614 W317A): as the sequence (P22303 32-614 F326L/F328V/Y368A) above, with W286A, L295F, V297F, A337Y counted along it
# Sequence of Y133F HuAChE (P22303 32-614 Y164F): as the sequence (P22303 32-614 F326L/F328V/Y368A) above, with Y133F, L295F, V297F, A337Y counted along it
# Sequence of W86A HuAChE (P22303 32-614 W117A): as the sequence (P22303 32-614 F326L/F328V/Y368A) above, with W86A, L295F, V297F, A337Y counted along it
# Sequence of Y72N HuAChE (P22303 32-614 Y103N): as the sequence (P22303 32-614 F326L/F328V/Y368A) above, with Y72N, L295F, V297F, A337Y counted along it
# Sequence of D74N HuAChE (P22303 32-614 D105N): as the sequence (P22303 32-614 F326L/F328V/Y368A) above, with D74N, L295F, V297F, A337Y counted along it
# Sequence of Y341A HuAChE (P22303 32-614 Y372A): as the sequence (P22303 32-614 F326L/F328V/Y368A) above, with L295F, V297F, A337Y, Y341A counted along it
# Sequence of E202Q HuAChE (P22303 32-614 E233Q): as the sequence (P22303 32-614 F326L/F328V/Y368A) above, with E202Q, L295F, V297F, A337Y counted along it
# Sequence of W86A/Y337A HuAChE (P22303 32-614 W117A/Y368A): as the sequence (P22303 32-614 F326L/F328V/Y368A) above, with W86A, L295F, V297F counted along it
# Sequence of Y124A HuAChE (P22303 32-614 Y155A): as the sequence (P22303 32-614 F326L/F328V/Y368A) above, with Y124A, L295F, V297F, A337Y counted along it
# Sequence of F297A HuAChE (P22303 32-614 F328A): as the sequence (P22303 32-614 F326L/F328V/Y368A) above, with L295F, V297A, A337Y counted along it
smiles,measurement,setting,value
"CC(C)c1ccc(NC(=O)Oc2ccc3c(c2)C2(C)CCOC2N3C)cc1 (single isomer, unassigned; (+)) [(+)-Cymyl carbamate of physovenol, cymyl carbamate of physovenol]",Kd,Wild Type HuAChE; [3],1000 ± 200 nM
same,Kd,W86A HuAChE; [4],5000 ± 1300 nM
same,Kd,Y337A HuAChE; [5],2200 ± 700 nM
same,Kd,F338A HuAChE; [6],57100 ± 15000 nM
"CC(C)c1ccc(NC(=O)Oc2ccc3c(c2)C2(C)CCOC2N3C)cc1 (single isomer, unassigned; (-)) [(−)-Cymyl carbamate of physovenol, cymyl carbamate of physovenol]",Kd,Wild Type HuAChE; [3],710 ± 120 nM
same,Kd,W86A HuAChE; [4],2500 ± 200 nM
same,Kd,Y337A HuAChE; [5],2700 ± 1000 nM
same,Kd,F338A HuAChE; [6],40000 ± 12000 nM
"CN1CC[C@@]2(C)c3cc(OC(=O)Nc4ccccc4)ccc3N(C)[C@@H]12 [(−)-Phenserine, phenserine]",Kd,F295A/F338A HuAChE,30 ± 8 nM
same,Kd,E202Q HuAChE,17400 ± 3400 nM
same,"k2, carbamylation rate constant",E202Q HuAChE,3.2 ± 1 min⁻¹
same,Kd,[1],120 ± 30 nM
same,Kd,Wild Type HuAChE,1390 ± 550 nM
same,"k2, carbamylation rate constant",Wild Type HuAChE; Wild Type HuAChE,0.9 ± 0.5 min⁻¹
same,Kd,Y341A HuAChE,690 ± 210 nM
same,"k2, carbamylation rate constant",Y341A HuAChE,0.7 ± 0.3 min⁻¹
same,Kd,E202A HuAChE,9100 ± 3600 nM
same,"k2, carbamylation rate constant",E202A HuAChE,0.2 ± 0.1 min⁻¹
same,Kd,W86F HuAChE,870 ± 340 nM
same,"k2, carbamylation rate constant",W86F HuAChE,1.3 ± 0.9 min⁻¹
same,Kd,Y133A HuAChE,76000 ± 15000 nM
same,"k2, carbamylation rate constant",Y133A HuAChE,0.4 ± 0.06 min⁻¹
same,Kd,[2],20300 ± 6100 nM
same,Kd,D74N HuAChE,3400 ± 610 nM
same,"k2, carbamylation rate constant",D74N HuAChE,0.7 ± 0.01 min⁻¹
same,Kd,F295L/F297V HuAChE,800 ± 360 nM
same,"k2, carbamylation rate constant",F295L/F297V HuAChE,3.0 ± 1.8 min⁻¹
same,Kd,E450A HuAChE,7400 ± 1900 nM
same,"k2, carbamylation rate constant",E450A HuAChE,0.2 ± 0.04 min⁻¹
same,"k2, carbamylation rate constant",F297A HuAChE,1.0 ± 0.5 min⁻¹
same,"k2, carbamylation rate constant",F295A/F297A HuAChE,8.5 ± 2.5 min⁻¹
same,Kd,"F295A/F297A HuAChE; Kd, Michaelis complex (Eq. 1)",2800 ± 800 nM
same,Kd,W286A HuAChE,160 ± 30 nM
same,Kd,F295L/F297V/Y337A HuAChE,300 ± 6 nM
same,"k2, carbamylation rate constant",F295L/F297V/Y337A HuAChE,0.9 ± 0.2 min⁻¹
same,Kd,Y337F HuAChE,280 ± 30 nM
same,"k2, carbamylation rate constant",Y337F HuAChE,0.9 ± 0.07 min⁻¹
same,Kd,Y72N HuAChE,740 ± 190 nM
same,"k2, carbamylation rate constant",Y72N HuAChE,1.7 ± 0.2 min⁻¹
same,Kd,F295A/F338A/V407F HuAChE,27200 ± 5500 nM
same,"k2, carbamylation rate constant",F295A/F338A/V407F HuAChE,0.3 ± 0.1 min⁻¹
same,Kd,W86A HuAChE,20000 ± 9000 nM
same,"k2, carbamylation rate constant",W86A HuAChE; W86A HuAChE,1.3 ± 1.0 min⁻¹
same,Kd,Y337A HuAChE,2750 ± 280 nM
same,"k2, carbamylation rate constant",Y337A HuAChE; Y337A HuAChE,0.8 ± 0.4 min⁻¹
same,Kd,Y133F HuAChE,7600 ± 1900 nM
same,"k2, carbamylation rate constant",Y133F HuAChE,0.3 ± 0.09 min⁻¹
same,Kd,HuBChE-Wild Type,9000 ± 3000 nM
same,"k2, carbamylation rate constant",HuBChE-Wild Type,0.6 ± 0.2 min⁻¹
same,Kd,F295A HuAChE,90 ± 40 nM
same,"k2, carbamylation rate constant",F295A HuAChE,2.1 ± 1.2 min⁻¹
same,Kd,F338A HuAChE,41300 ± 9500 nM
same,"k2, carbamylation rate constant",F338A HuAChE; F338A HuAChE,0.7 ± 0.1 min⁻¹
"CNC(=O)Oc1ccc2c(c1)[C@]1(C)CCN(C)[C@@H]1N2C [(−)-Physostigmine, (−)physostigmine salicylate]","k2, carbamylation rate constant",F295A/F338A HuAChE; F295A/F338A HuAChE,4.5 ± 0.9 min⁻¹
same,"ki, bimolecular rate constant of carbamylation",F295A/F338A HuAChE; F295A/F338A HuAChE,78±19 × 10^−4 M^−1min^−1
same,"k2, carbamylation rate constant",E202Q HuAChE,0.80 ± 0.20 min⁻¹
same,"k2, carbamylation rate constant",[1]; [7],0.20 ± 0.05 min⁻¹
same,"ki, bimolecular rate constant of carbamylation",[1]; [7],34±1.2 × 10^−4 M^−1min^−1
same,"k2, carbamylation rate constant",Wild Type HuAChE; Wild Type HuAChE,1.2 ± 0.5 min⁻¹
same,"k2, carbamylation rate constant",Y341A HuAChE,1.90 ± 0.30 min⁻¹
same,"k2, carbamylation rate constant",E202A HuAChE,0.24 ± 0.05 min⁻¹
same,"k2, carbamylation rate constant",W86A/Y337A HuAChE,1.2 ± 0.18 min⁻¹
same,"ki, bimolecular rate constant of carbamylation",W86A/Y337A HuAChE,866 ±130 × 10^−4 M^−1min^−1
same,"k2, carbamylation rate constant",W86F HuAChE,0.90 ± 0.20 min⁻¹
same,"k2, carbamylation rate constant",Y133A HuAChE,0.40 ± 0.02 min⁻¹
same,"k2, carbamylation rate constant",[2]; [8],1.25 ± 0.25 min⁻¹
same,"ki, bimolecular rate constant of carbamylation",[2]; [8],18±3 × 10^−4 M^−1min^−1
same,"k2, carbamylation rate constant",D74N HuAChE,2.40 ± 0.50 min⁻¹
same,"k2, carbamylation rate constant",F295L/F297V HuAChE,2.0 ± 0.4 min⁻¹
same,"k2, carbamylation rate constant",E450A HuAChE,0.15 ± 0.01 min⁻¹
same,"k2, carbamylation rate constant",F297A HuAChE,0.60 ± 0.10 min⁻¹
same,"k2, carbamylation rate constant",F295A/F297A HuAChE,0.6 ± 0.2 min⁻¹
same,"k2, carbamylation rate constant",Y124A HuAChE,6.0 ± 1.8 min⁻¹
same,"ki, bimolecular rate constant of carbamylation",Y124A HuAChE,150±3 × 10^−4 M^−1min^−1
same,"k2, carbamylation rate constant",W286A HuAChE; W286A HuAChE,2.70 ± 0.80 min⁻¹
same,"ki, bimolecular rate constant of carbamylation",W286A HuAChE; W286A HuAChE,365±40 × 10^−4 M^−1min^−1
same,"k2, carbamylation rate constant",F295L/F297V/Y337A HuAChE,0.75 ± 0.20 min⁻¹
same,"k2, carbamylation rate constant",Y337F HuAChE,1.90 ± 0.40 min⁻¹
same,"k2, carbamylation rate constant",Y72N HuAChE,0.9 ± 0.14 min⁻¹
same,"k2, carbamylation rate constant",F295A/F338A/V407F HuAChE,0.2 ± 0.03 min⁻¹
same,"k2, carbamylation rate constant",W86A HuAChE; W86A HuAChE,0.80 ± 0.30 min⁻¹
same,"k2, carbamylation rate constant",Y337A HuAChE; Y337A HuAChE,1.10 ± 0.50 min⁻¹
same,"k2, carbamylation rate constant",Y133F HuAChE,0.13 ± 0.01 min⁻¹
same,"k2, carbamylation rate constant",HuBChE-Wild Type,0.55 ± 0.05 min⁻¹
same,"k2, carbamylation rate constant",F295A HuAChE,1.60 ± 0.50 min⁻¹
same,"k2, carbamylation rate constant",F338A HuAChE; F338A HuAChE,0.40 ± 0.20 min⁻¹
